Blank lines part the entries; values can stand above or below the molecule they belong to.
How the values were obtained:
Estrogen receptor = target: T1, Estrogen receptor (Homo sapiens, UniProt P03372); assay: Inhibition of ER (unknown origin) by luciferase reporter assay
T1 sequence (P03372 whole entry): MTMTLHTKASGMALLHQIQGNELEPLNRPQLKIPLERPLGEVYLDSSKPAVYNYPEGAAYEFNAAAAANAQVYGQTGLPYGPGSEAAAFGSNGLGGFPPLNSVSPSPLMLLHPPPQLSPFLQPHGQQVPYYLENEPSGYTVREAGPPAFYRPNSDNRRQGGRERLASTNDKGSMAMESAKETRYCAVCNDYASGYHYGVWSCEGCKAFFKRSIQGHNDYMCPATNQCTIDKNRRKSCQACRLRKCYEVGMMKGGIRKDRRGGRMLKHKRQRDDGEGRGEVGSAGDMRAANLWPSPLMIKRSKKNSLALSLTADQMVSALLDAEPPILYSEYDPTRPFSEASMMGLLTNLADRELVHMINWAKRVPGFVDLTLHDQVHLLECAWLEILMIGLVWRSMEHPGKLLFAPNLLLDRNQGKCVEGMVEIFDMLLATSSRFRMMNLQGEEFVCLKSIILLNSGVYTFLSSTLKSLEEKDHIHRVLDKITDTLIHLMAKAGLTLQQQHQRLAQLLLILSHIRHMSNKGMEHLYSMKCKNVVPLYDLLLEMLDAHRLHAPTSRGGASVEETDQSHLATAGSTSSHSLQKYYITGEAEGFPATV

[1] = Downregulation of ER in human MCF7 cells assessed as […] measured after 2 days EIA assay; assay type: functional, cell-based; settings: MCF7, 48 h
Rattus norvegicus = assay: Anti-uterotrophic activity in rat at 10 mg/kg, sc administered once daily for 3 days relative to control; assay type: functional; settings: time 3 day
MCF7 [2] = assay: Antiproliferative activity against human MCF7 cells; assay type: functional, cell-based
[3] = Inhibition of ESR1 Y537S mutant LBD (unknown origin) transfected in SK-BR-3 cells measured after 22 hrs by luciferase assay; assay type: cell-based; settings: Homo sapiens, SK-BR-3, 22 h
MCF7 [4] = assay: Antiproliferative activity against human MCF7 cells assessed as reduction in cell proliferation; assay type: functional, cell-based

Structure (SMILES): C[C@]12CCC3c4ccc(O)cc4C[C@@H](CCCCCCCC[C@H](CCCC(F)(F)C(F)(F)C(F)(F)C(F)(F)F)C(=O)O)C3C1CCC2=O (some centres not stated)
IC50 (Estrogen receptor): 49.8 nM | IC50 [1]: 24 nM

Structure (SMILES): CCCCN(C)C(=O)CCCCCCCCCC[C@@H]1Cc2cc(O)ccc2C2CC[C@@]3(C)C(CC[C@@H]3O)C21 (some centres not stated)
Activity (Rattus norvegicus): 105%

Structure (SMILES): CN(CCCCC[C@@H]1Cc2cc(O)ccc2C2C1C1CC[C@H](O)[C@@]1(C)C[C@@H]2F)CCCSCCCC(F)(F)C(F)(F)F (some centres not stated)
IC50 (MCF7 [2]): 2.4 nM

Structure (SMILES): CCCCNC(=O)CCCCCCCCCC[C@@H]1Cc2cc(O)ccc2C2CC[C@@]3(C)C(CC[C@@H]3O)C21 (some centres not stated)
Activity (Rattus norvegicus): 100%

Structure (SMILES): CN(CCCCCCC(F)(F)C(F)(F)C(F)(F)C(F)(F)F)CCCCC[C@@H]1Cc2cc(O)ccc2C2C1C1CC[C@H](O)[C@@]1(C)C[C@@H]2F (some centres not stated)
IC50 (MCF7 [2]): 1.9 nM

IC50 [3]: 8 nM | IC50 (MCF7 [2]): 9.2 nM
Structure (SMILES): CC1=C(c2ccc(O)cc2)[C@H](c2ccc(OCCN3CC[C@@H](C)C3)cc2)Oc2cc(O)ccc21

Structure (SMILES): C[C@]12C[C@H](c3ccc(OCCCCCS(=O)(=O)CCCC(F)(F)C(F)(F)F)cc3)C3c4ccc(O)cc4CCC3C1CC[C@@H]2O (some centres not stated)
IC50 (MCF7 [2]): 0.13 nM

IC50 (MCF7 [4]): 4.2 nM
Structure (SMILES): CCNCCc1ccc(CN(CC)c2cc(OC)ccc2[C@@H]2CCc3cc(O)ccc3C2)cc1 [ELACESTRANT]

Structure (SMILES): C[C@]12CC[C@@H]3c4ccc(O)cc4C[C@@H](CCCCCCCCC[S+]([O-])CCCC(F)(F)C(F)(F)F)[C@H]3[C@@H]1CC[C@@H]2O (some centres not stated) [FULVESTRANT]
IC50 [3]: 22 nM | IC50 (MCF7 [2]): 0.35 nM
